Results taken from paper PMC3774728, “Identification of the Plant Compound Geraniin as a Novel Hsp90 Inhibitor” (PLoS ONE, 2013).

Legend:
HeLa cells = experiment: MTT cell viability, HeLa; type: cell-based, human; conditions: Homo sapiens, 24 h
Procedure: (§1) To ensure logarithmic growth, cells were subcultured every two days. As control cells, human peripheral blood mononuclear cells (PBMC) were isolated from buffy coats of healthy donors (kindly provided by the Blood Center of the Hospital of Battipaglia, Salerno, Italy) by using standard Ficoll−Hypaque gradients. […] Proliferation of PBMC was induced by phytohemagglutinin (PHA) (10 µg mL^−1). Tumor and PBMC cells were treated with different concentrations of geraniin or 17-AAG to evaluate their cytotoxic effects. Stock solutions of geraniin (50 mM in DMSO) and 17-AAG (10 mM in DMSO) were stored a −20°C in the dark and diluted just before addition to the sterile culture medium. In all the experiments, the final concentration of DMSO was 0.10% (v/v).
Jurkat (2×10^4/well) and HeLa (5000/well) cells were seeded in triplicate in 96 well−plates and incubated for 24 h in the absence or presence of different concentrations of geraniin (between 0,5 µM to 50 µM) or 17-AAG (between 0,5 nM to 10 µM).
The number of viable cells was determined by using a [3–4,5-dimethyldiazol-2-yl]-2,5-diphenyl tetrazolium bromide (MTT, Sigma-Aldrich) conversion assay, according to the method described by Mosmann. […] The absorbance was measured with a microplate reader (Titertek multiskan MCC7340, LabSystems, Vienna, VA, USA) equipped with a 620 nm filter. […]

[1] = test system: PBMC (human Peripheral Blood Mononuclear Cells); experiment: Cytotoxicity in PHA-stimulated proliferating PBMC; type: cell-based; conditions: 24 h, trypan blue, only at high doses
Procedure: as §1, with “Tumor and PBMC cells were treated with different concentrations of geraniin or 17-AAG to evaluate their cytotoxic effects.” left out
The number of viable cells was determined by using a [3–4,5-dimethyldiazol-2-yl]-2,5-diphenyl tetrazolium bromide (MTT, Sigma-Aldrich) conversion assay, according to the method described by Mosmann. Briefly, following the treatment, 25 µL of MTT (5 mg/mL in PBS) was added and the cells were incubated for additional 3 h at 37°C. Thereafter, cells were lysed and suspended with 100 µL of buffer containing 50% (v/v) N,N-dimethylformamide, 20% SDS (pH 4.5). The absorbance was measured with a microplate reader (Titertek multiskan MCC7340, LabSystems, Vienna, VA, USA) equipped with a 620 nm filter. Cell population growth inhibition was tested by cytometric counting (trypan blu exclusion).

recombinant Hsp90α = target: T1, recombinant Hsp90α (Homo sapiens, UniProt P07900); experiment: Limited proteolysis-mass spectrometry of Hsp90α/geraniin complex; conditions: trypsin or chymotrypsin, 5:1 molar excess of geraniin, 37°C
T1 construct: purchased Assay Designs (Ann Arbor, MI, USA)
Procedure: Limited proteolysis experiments were performed on recombinant Hsp90α at 37°C, PBS 0.1% DMSO, using trypsin or chymotrypsin as proteolytic agents; 30 µL of a 3 µM Hsp90α solution were used for each experiment. Binary complex Hsp90α/geraniin was formed by incubating the protein with a 5∶1 molar excess of geraniin at 37°C for 15 min prior to proteolytic enzyme addition. Both Hsp90 and Hsp90/geraniin complex were digested using a 1∶100 (w/w) enzyme to substrate ratio. The extent of the reactions was monitored on a time−course basis by sampling the incubation mixture after 5, 15, and 30 min of digestion. Samples were analyzed by MALDITOF/MS using a MALDI micro MX (Waters). Mass data were elaborated using the Masslynx software (Waters). Preferential hydrolysis sites on Hsp90α under different conditions were identified on the basis of the fragments released during enzymatic digestion.
In an effort to identify the Hsp90α region involved in geraniin binding, a limited proteolysis−mass spectrometry−based strategy was used for the structural analysis of the Hsp90α/geraniin complex. This approach is based on the evidence that exposed, weakly structured, and flexible regions of a protein can be recognized by a proteolytic enzyme, [30]. […]

Hsp90α ATPase activity = target: T2, Hsp90α ATPase activity (Homo sapiens, UniProt P07900); experiment: ATP hydrolysis inhibition (ADP Hunter Plus assay); type: biochemical; conditions: 40 nM Hsp90α, 100 µM ATP, 60 min, 40°C
T2 construct: purchased Assay Designs (Ann Arbor, MI, USA)
Procedure: The assay was performed using the Discover RX ADP HunterTM Plus Assay kit, following the manufacturer’s instructions. ATPase reactions were carried out for 60 min at 40°C temperature in 100 mM Tris pH 7.4, 100 µM ATP and 40 nM Hsp90α in the presence of different concentrations of geraniin or 17-AAG. ADP generation was measured using a Perkin Elmer LS 55 fluorimeter (540 nm excitation and 620 nm emission). Fluorescence intensity values measured for Hsp90α without any compound were set at 100% of enzyme activity. The background reaction rate was measured in a reaction lacking enzyme or substrate and subtracted from the experimental rates.
Figure 3 Inhibition of Hsp90α activity. ATPase activity of the chaperone was evaluated in the presence of different concentrations of geraniin, 17-AAG and HA (A). Data are reported as the residual ATPase activity (%) compared to that observed for an untreated sample. Data are the mean of three independent experiments performed in triplicate and were analyzed by t test (HA vs testing compounds): The error bar represents the standard deviation of nine measurements, while * indicates significance at P<0.01. Aggregation kinetics of citrate synthase (CS) at 43°C determined by light scattering (B). […]

IC50 (HeLa cells): 5.1 ± 0.2 µM
SMILES: O=C1O[C@H]2[C@@H]3OC(=O)c4cc(O)c(O)c(O)c4-c4c(cc(O)c(O)c4O)C(=O)OC[C@H]2O[C@@H](OC(=O)c2cc(O)c(O)c(O)c2)[C@@H]3OC(=O)c2cc(O)c(O)c3c2[C@@H]2C1=CC(=O)[C@](O)(O3)C2(O)O [Compound 54, geraniin]
cytotoxic effects in control PBMC [1]: Minimal cytotoxic effects
Hsp90α region involved in binding (recombinant Hsp90α): overall protection of the N−terminal region from proteolysis
Hsp90α ATPase activity inhibition (Hsp90α ATPase activity): inhibit Hsp90α ATPase activity in a dose−dependent manner
